Laboratory results as given in patent US20100240745A1, “METHOD OF TREATMENT OF INFLAMMATION IN HYPERTENSIVE PATIENTS” (NICOX S.A., priority 2009, published 2010).
Marks after values point to notes of the source that are not given here.

Experiment: 13-week double-blind, randomized clinical trial: office systolic blood pressure (SBP) in osteoarthritic patients with hypertension treated with renin-angiotensin system blockers
Assay type: in vivo, human
Conditions: for Difference in mean changes of SBP vs naproxen 500 mg / Difference in mean changes of SBP vs placebo / mean change in systolic blood pressure (SBP) vs baseline, mean ± SE: 13-week study; for mean change in systolic blood pressure (SBP) vs baseline, mean ± SE: osteoarthritic hypertensive patients on RAS blockers alone or with a diuretic; for blood pressure elevation / BP destabilization (result in words): osteoarthritic hypertensive patients treated with at least a renin-angiotensin system blocking agent
Procedure: Effects of 4-(nitrooxy)butyl(2S)-2-(6-methoxy-2-naphthyl)propanoate (naproxcinod) and naproxen on systolic blood pressure (SBP).
The effects of two twice daily drug regimens (375 mg bid and 750 mg bid) of 4-(nitrooxy)butyl(2S)-2-(6-methoxy-2-naphthyl)propanoate (naproxcinod) on systolic blood pressure (SBP) vs. naproxen and placebo were studied in a 13-week double-blind, randomized clinical trial involving 207 osteoarthritic patients and hypertension treated with renin-angiotensin system blockers alone or in combination with a diuretic.
Patients were sequentially randomized in a 1:1:1:1 ratio using a validated remote automated system to receive for the 13-week study treatment period one of 4 treatment groups: • naproxcinod 750 mg twice daily, • naproxcinod 375 mg twice daily, • naproxen 500 mg (equimolar dose of naproxcinod 750 mg) twice daily, or • placebo twice daily.
The office SBP was measured in a standardized fashion by mercury column or aneroid device in supine position, at rest, at baseline and 2, 6, and 13 weeks after study treatment initiation. SBP measurements were to be performed 2 to 4 hours post-morning dose.
The comparability of the patients in the 4 treatment groups was determined from the demographic data and baseline BP values.

Structure (SMILES): COc1ccc2cc([C@H](C)C(=O)OCCCCO[N+](=O)[O-])ccc2c1 [naproxcinod, 4-(nitrooxy)butyl(2S)-2-(6-methoxy-2-naphthyl)propanoate]
- Difference in mean changes of SBP vs naproxen 500 mg (375 mg twice daily): −4.2 mmHg
- Difference in mean changes of SBP vs placebo (375 mg twice daily): 1.9 mmHg
- mean change in systolic blood pressure (SBP) vs baseline, mean ± SE (375 mg twice daily): −2.7 ± 1.7 mmHg
- Difference in mean changes of SBP vs naproxen 500 mg (750 mg twice daily): −6.5 mmHg
- Difference in mean changes of SBP vs placebo (750 mg twice daily): −0.4* mmHg
- mean change in systolic blood pressure (SBP) vs baseline, mean ± SE (750 mg twice daily): −5.0 ± 1.7 mmHg
- blood pressure elevation / BP destabilization (result in words): less BP destabilization compared to naproxen
- blood pressure elevation / BP destabilization (result in words) (listed as 4-(nitrooxy)butyl(2S)-2-(6-methoxy-2-naphthyl)propanoate): does not induce blood pressure elevation

Structure (SMILES): COc1ccc2cc([C@H](C)C(=O)O)ccc2c1 [naproxen, reference compound]
- Difference in mean changes of SBP vs placebo (500 mg twice daily): 6.1** mmHg
- mean change in systolic blood pressure (SBP) vs baseline, mean ± SE (500 mg twice daily): 1.5 ± 1.9 mmHg
